The record followed here is PMC4961696, “An Enantiomer of an Oral Small-Molecule TSH Receptor Agonist Exhibits Improved Pharmacologic Properties” (Frontiers in Endocrinology, 2016).

The target in assay [1] is T1, TSH receptor (TSHR) (Homo sapiens, UniProt P16473). The assay can be described thus: cAMP production in HEK293 cells stably expressing TSHR (agonist dose-response); inactive in HEK-LHR and HEK-FSHR cells. It counts as cell-based.
In assay [2] the target is T1, TSH receptor (TSHR). Briefly: cAMP production in HEK293 cells stably expressing TSHR (agonist dose-response). It counts as cell-based.

T1 sequence (P16473 21-764): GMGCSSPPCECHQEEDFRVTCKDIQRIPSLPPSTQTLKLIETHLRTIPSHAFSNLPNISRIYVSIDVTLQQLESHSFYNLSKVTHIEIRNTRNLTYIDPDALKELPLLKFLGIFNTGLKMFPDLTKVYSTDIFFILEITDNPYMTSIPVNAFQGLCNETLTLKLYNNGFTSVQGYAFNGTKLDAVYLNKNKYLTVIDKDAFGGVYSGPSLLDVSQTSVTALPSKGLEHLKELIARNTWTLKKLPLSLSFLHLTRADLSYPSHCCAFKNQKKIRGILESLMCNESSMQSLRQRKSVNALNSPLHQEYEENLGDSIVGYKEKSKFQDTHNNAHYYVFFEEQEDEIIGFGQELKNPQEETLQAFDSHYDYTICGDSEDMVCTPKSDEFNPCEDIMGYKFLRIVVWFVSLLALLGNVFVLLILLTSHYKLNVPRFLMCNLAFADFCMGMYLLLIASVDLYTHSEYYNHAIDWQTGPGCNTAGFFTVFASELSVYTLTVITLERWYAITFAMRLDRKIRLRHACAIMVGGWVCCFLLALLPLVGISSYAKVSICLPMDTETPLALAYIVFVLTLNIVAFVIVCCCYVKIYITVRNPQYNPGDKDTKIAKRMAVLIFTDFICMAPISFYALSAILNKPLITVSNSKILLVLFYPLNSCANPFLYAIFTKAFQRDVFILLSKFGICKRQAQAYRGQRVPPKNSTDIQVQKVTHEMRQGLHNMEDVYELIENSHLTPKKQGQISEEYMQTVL

As to `COc1ccc([C@H]2Nc3cccc(O)c3C(=O)N2Cc2ccccc2)cc1COc1ccc(NC(C)=O)cc1` [E2], in assay [1], the EC50 is 18 nM. Take `COc1ccc([C@@H]2Nc3cccc(O)c3C(=O)N2Cc2ccccc2)cc1COc1ccc(NC(C)=O)cc1` [E1]: in assay [1], the EC50 worked out at 217 nM. As to `COc1ccc(C2Nc3cccc(O)c3C(=O)N2Cc2ccccc2)cc1COc1ccc(NC(C)=O)cc1` (racemic) [C2], in assay [2], the EC50 is 46 nM. This lies in the double-digit nanomolar range.
